One may read the EC50 as the midpoint of the concentration-response curve.

Here are results for eleven compounds from patent US10245275B2 (ViiV HEALTHCARE UK (NO.4) LIMITED, priority 2014, dated 2019).

Assay [1] relates to WT (wild-type HIV virus; recombinant NL4-3 virus). In words: microbe, parasite or virus in culture. The assay is classed as cell-based, HIV-1. On the procedure:
(§1) MT-2 cells and 293T cells were obtained from the NIH AIDS Research and Reference Reagent Program. MT-2 cells were propagated in RPMI 1640 media supplemented with 10% heat-inactivated fetal bovine serum, […]. The 293T cells were propagated in DMEM media supplemented with 10% heat-inactivated fetal bovine serum (FBS), 100 units/mL penicillin G and 100 μg/mL streptomycin. […] A recombinant NL4-3 virus, in which a section of the nef gene from NL4-3 was replaced with the Renilla luciferase gene, was used as a reference virus. In addition, residue Gag P373 was converted to P373S. […] Transfections were performed in 293T cells using LipofectAMINE PLUS from Invitrogen (Carlsbad, Calif.), according to manufacturer's instruction. The virus was titered in MT-2 cells using luciferase enzyme activity as a marker. Luciferase was quantitated using the Dual Luciferase kit from Promega (Madison, Wis.), with modifications to the manufacturer's protocol. The diluted Passive Lysis solution was pre-mixed with the re-suspended Luciferase Assay Reagent and the re-suspended Stop & Glo Substrate (2:1:1 ratio). Fifty (50) μL of the mixture was added to each aspirated well on assay plates and luciferase activity was measured immediately on a Wallac TriLux (Perkin-Elmer). Antiviral activities of inhibitors toward the recombinant virus were quantified by measuring luciferase activity in cells infected for 4-5 days with NLRluc recombinants in the presence serial dilutions of the inhibitor.
WT refers to wild-type HIV virus. […]

For assay [2], the system named is HIV-1 NL4-3 gag A364V virus. As to the kind of experiment: microbe, parasite or virus in culture. The assay is classed as cell-based. On the procedure: as §1
Both recombinant viruses were used as described above in the HIV cell culture assay for the NL4-3 virus.

[3] abbreviates: Human immunodeficiency virus 1, NL43, MT2, read-out: WT (EC50, uM), Table 1 regular screen, class symbol.
Setting [4] is: Human immunodeficiency virus 1, NL43, MT2, read-out: A364V (EC50, uM), Table 1 regular screen, class symbol.
[5] abbreviates: Human immunodeficiency virus 1, NL43, MT2, read-out: WT (EC50, uM), Table 1 regular screen, MT-2 cells, luciferase readout.
Where [6] appears, read: Human immunodeficiency virus 1, NL43, MT2, read-out: A364V (EC50, uM), Table 1 regular screen, MT-2 cells, luciferase readout.

Like-named read-outs stand apart in the source and are kept apart here. Some results are limits rather than exact numbers.

As to `C=C(C)[C@@H]1CC[C@]2(NCCC3(O)COC3)CC[C@]3(C)[C@H](CC[C@@H]4[C@@]5(C)CC=C(C6=CC[C@](CF)(C(=O)O)CC6)C(C)(C)[C@@H]5CC[C@]43C)[C@@H]12` [Example 2-10, (S)-1-(fluoromethyl)-4-((1R,3aS,5aR,5bR,7aR,11aS,11bR,13aR,13bR)-3a-((2-(3-hydroxyoxetan-3-yl)ethyl)amino)-5a,5b, 8,8,11a-pentamethyl-1-(prop-1-en-2-yl)-2,3,3a,4,5,5a,5b,6,7,7a,8,11,11a,11b,12,13,13a,13b-octadecahydro-1H-cyclopenta[a]chrysen-9-yl)cyclohex-3-enecarboxylic acid], the EC50 was below 0.05 µM in assay [1] (setting [3]) and above 0.05 µM in assay [2] (setting [4]).
As for `C=C(C)[C@@H]1CC[C@]2(NCCC3(O)CCOCC3)CC[C@]3(C)[C@H](CC[C@@H]4[C@@]5(C)CC=C(C6=CC[C@](CF)(C(=O)O)CC6)C(C)(C)[C@@H]5CC[C@]43C)[C@@H]12` [Example 2-12, (S)-1-(fluoromethyl)-4-((1R,3aS,5aR,5bR,7aR,11aS,11bR,13aR,13bR)-3a-((2-(4-hydroxytetrahydro-2H-pyran-4-yl)ethyl)amino)-5a,5b, 8,8,11a-pentamethyl-1-(prop-1-en-2-yl)-2,3,3a,4,5,5a,5b,6,7,7a,8,11,11a,11b,12,13,13a,13b-octadecahydro-1H-cyclopenta[a]chrysen-9-yl)cyclohex-3-enecarboxylic acid], the EC50 in assay [1] (setting [5]) worked out at 0.00201 µM; in assay [2] (setting [6]), 0.348 µM.
Turning to `C=C(C)[C@@H]1CC[C@]2(NCCC3(O)CCS(=O)(=O)CC3)CC[C@]3(C)[C@H](CC[C@@H]4[C@@]5(C)CC=C(C6=CC[C@](CF)(C(=O)O)CC6)C(C)(C)[C@@H]5CC[C@]43C)[C@@H]12` [Example 2-13, (S)-1-(fluoromethyl)-4-((1R,3aS,5aR,5bR,7aR,11aS,11bR,13aR,13bR)-3a-((2-(4-hydroxy-1,1-dioxidotetrahydro-2H-thiopyran-4-yl)ethyl)amino)-5a,5b,8,8,11a-pentamethyl-1-(prop-1-en-2-yl)-2,3,3a,4,5,5a,5b,6,7,7a,8,11,11a,11b,12,13,13a,13b-octadecahydro-1H-cyclopenta[a]chrysen-9-yl)cyclohex-3-enecarboxylic acid], the 50% effective concentration (EC50) in assay [1] (setting [3]) was below 0.05 µM; in assay [2] (setting [4]) it was above 0.05 µM.
Take `C=C(C)[C@@H]1CC[C@]2(NCCC3(O)CCN(S(C)(=O)=O)CC3)CC[C@]3(C)[C@H](CC[C@@H]4[C@@]5(C)CC=C(C6=CC[C@](CF)(C(=O)O)CC6)C(C)(C)[C@@H]5CC[C@]43C)[C@@H]12` [Example 2-14, (S)-1-(fluoromethyl)-4-((1R,3aS,5aR,5bR,7aR,11aS,11bR,13aR,13bR)-3a-((2-(4-hydroxy-1-(methylsulfonyl)piperidin-4-yl)ethyl)amino)-5a,5b,8,8,11a-pentamethyl-1-(prop-1-en-2-yl)-2,3,3a,4,5,5a,5b,6,7,7a,8,11,11a,11b,12,13,13a,13b-octadecahydro-1H-cyclopenta[a]chrysen-9-yl)cyclohex-3-enecarboxylic acid]: the EC50 came to 0.00256 µM in assay [1] (setting [5]) and 0.0431 µM in assay [2] (setting [6]).
Take `C=C(C)[C@@H]1CC[C@]2(NCCC3(O)CCN(C(C)=O)CC3)CC[C@]3(C)[C@H](CC[C@@H]4[C@@]5(C)CC=C(C6=CC[C@](CF)(C(=O)O)CC6)C(C)(C)[C@@H]5CC[C@]43C)[C@@H]12` [Example 2-15, (S)-4-((1R,3aS,5aR,5bR,7aR,11aS,11bR,13aR,13bR)-3a-((2-(1-acetyl-4-hydroxypiperidin-4-yl)ethyl)amino)-5a,5b, 8,8,11a-pentamethyl-1-(prop-1-en-2-yl)-2,3,3a,4,5,5a,5b,6,7,7a,8,11,11a,11b,12,13,13a,13b-octadecahydro-1H-cyclopenta[a]chrysen-9-yl)-1-(fluoromethyl)cyclohex-3-enecarboxylic acid]: the EC50 worked out at 0.00173 µM in assay [1] (setting [5]) and 0.151 µM in assay [2] (setting [6]).
For `C=C(C)[C@@H]1CC[C@]2(NCC[C@]3(O)CC[C@](C)(O)CC3)CC[C@]3(C)[C@H](CC[C@@H]4[C@@]5(C)CC=C(C6=CC[C@](CF)(C(=O)O)CC6)C(C)(C)[C@@H]5CC[C@]43C)[C@@H]12` [Example 2-16, (S)-4-((1R,3aS,5aR,5bR,7aR,11aS,11bR,13aR,13bR)-3a-((2-((trans)-1,4-dihydroxy-4-methylcyclohexyl)ethyl)amino)-5a,5b,8,8,11a-pentamethyl-1-(prop-1-en-2-yl)-2,3,3a,4,5,5a,5b,6,7,7a,8,11,11a,11b,12,13,13a,13b-octadecahydro-1H-cyclopenta[a]chrysen-9-yl)-1-(fluoromethyl)cyclohex-3-enecarboxylic acid] the same measures were 0.0021 µM and 0.0571 µM.
With `C=C(C)[C@@H]1CC[C@]2(NCC[C@]3(O)CC[C@@](C)(O)CC3)CC[C@]3(C)[C@H](CC[C@@H]4[C@@]5(C)CC=C(C6=CC[C@](CF)(C(=O)O)CC6)C(C)(C)[C@@H]5CC[C@]43C)[C@@H]12` [Example 2-18, (S)-4-((1R,3aS,5aR,5bR,7aR,11aS,11bR,13aR,13bR)-3a-((2-((cis)-1,4-dihydroxy-4-methylcyclohexyl)ethyl)amino)-5a,5b,8,8,11a-pentamethyl-1-(prop-1-en-2-yl)-2,3,3a,4,5,5a,5b,6,7,7a,8,11,11a,11b,12,13,13a,13b-octadecahydro-1H-cyclopenta[a]chrysen-9-yl)-1-(fluoromethyl)cyclohex-3-enecarboxylic acid], the values for the EC50 in assay [1] (setting [5]) and in assay [2] (setting [6]) were 0.00165 µM and 0.854 µM, respectively.
For `C=C(C)[C@@H]1CC[C@]2(NCC[C@]3(O)CC[C@@H](S(C)(=O)=O)CC3)CC[C@]3(C)[C@H](CC[C@@H]4[C@@]5(C)CC=C(C6=CC[C@](CF)(C(=O)O)CC6)C(C)(C)[C@@H]5CC[C@]43C)[C@@H]12` [Example 2-19, (S)-1-(fluoromethyl)-4-((1R,3aS,5aR,5bR,7aR,11aS,11bR,13aR,13bR)-3a-((2-((cis)-1-hydroxy-4-(methylsulfonyl)cyclohexyl)ethyl)amino)-5a,5b,8,8,11a-pentamethyl-1-(prop-1-en-2-yl)-2,3,3a,4,5,5a,5b,6,7,7a,8,11,11a,11 b,12,13,13a,13b-octadecahydro-1H-cyclopenta[a]chrysen-9-yl)cyclohex-3-enecarboxylic acid], the EC50 in assay [1] (setting [5]) stood at 0.00135 µM; in assay [2] (setting [6]) it was 0.0222 µM.
For `C=C(C)[C@@H]1CC[C@]2(NCC[C@]3(O)CC[C@H](S(C)(=O)=O)CC3)CC[C@]3(C)[C@H](CC[C@@H]4[C@@]5(C)CC=C(C6=CC[C@](CF)(C(=O)O)CC6)C(C)(C)[C@@H]5CC[C@]43C)[C@@H]12` [Example 2-21, (S)-1-(fluoromethyl)-4-((1R,3aS,5aR,5bR,7aR,11aS,11bR,13aR,13bR)-3a-((2-((trans)-1-hydroxy-4-(methylsulfonyl)cyclohexyl)ethyl)amino)-5a,5b, 8,8,11a-pentamethyl-1-(prop-1-en-2-yl)-2,3,3a,4,5,5a,5b,6,7,7a,8,11,11a,11b,12,13,13a,13b-octadecahydro-1H-cyclopenta[a]chrysen-9-yl)cyclohex-3-enecarboxylic acid], the EC50 is below 0.05 µM in assay [1] (setting [3]) and above 0.05 µM in assay [2] (setting [4]).
Consider `C=C(C)[C@@H]1CC[C@]2(NCCC3(O)CCC(OS(C)(=O)=O)CC3)CC[C@]3(C)[C@H](CC[C@@H]4[C@@]5(C)CC=C(C6=CC[C@](CF)(C(=O)O)CC6)C(C)(C)[C@@H]5CC[C@]43C)[C@@H]12` (stereo partly drawn) [Example 2-22, (S)-1-(fluoromethyl)-4-((1R,3aS,5aR,5bR,7aR,11aS,11bR,13aR,13bR)-3a-((2-(1-hydroxy-4-((methylsulfonyl)oxy)cyclohexyl)ethyl)amino)-5a,5b,8,8,11a-pentamethyl-1-(prop-1-en-2-yl)-2,3,3a,4,5,5a,5b,6,7,7a,8,11,11a,11b,12,13,13a,13b-octadecahydro-1H-cyclopenta[a]chrysen-9-yl)cyclohex-3-enecarboxylic acid], for which the EC50 in assay [1] (setting [5]) was 0.00315 µM; in assay [2] (setting [6]), 0.107 µM.
On to `C=C(C)[C@@H]1CC[C@]2(NCCN3CCC(C)(O)CC3)CC[C@]3(C)[C@H](CC[C@@H]4[C@@]5(C)CC=C(C6=CC[C@](CF)(C(=O)O)CC6)C(C)(C)[C@@H]5CC[C@]43C)[C@@H]12` [Example 2-23, (S)-1-(fluoromethyl)-4-((1R,3aS,5aR,5bR,7aR,11aS,11bR,13aR,13bR)-3a-((2-(4-hydroxy-4-methylpiperidin-1-yl)ethyl)amino)-5a,5b,8,8,11a-pentamethyl-1-(prop-1-en-2-yl)-2,3,3a,4,5,5a,5b,6,7,7a,8,11,11a,11b,12,13,13a,13b-octadecahydro-1H-cyclopenta[a]chrysen-9-yl)cyclohex-3-enecarboxylic acid], for which the EC50 in assay [1] (setting [5]) is 0.00121 µM; in assay [2] (setting [6]), 0.0597 µM.
